The values that follow come from ChEMBL document CHEMBL5136993, “Identification of potent α-amylase inhibitors via dynamic combinatorial chemistry” (Bioorg Med Chem, 2022).

Data set [1] deals with T1, Alpha amylase (Homo sapiens, UniProt P0DUB6).
T1 sequence (P0DUB6 whole entry): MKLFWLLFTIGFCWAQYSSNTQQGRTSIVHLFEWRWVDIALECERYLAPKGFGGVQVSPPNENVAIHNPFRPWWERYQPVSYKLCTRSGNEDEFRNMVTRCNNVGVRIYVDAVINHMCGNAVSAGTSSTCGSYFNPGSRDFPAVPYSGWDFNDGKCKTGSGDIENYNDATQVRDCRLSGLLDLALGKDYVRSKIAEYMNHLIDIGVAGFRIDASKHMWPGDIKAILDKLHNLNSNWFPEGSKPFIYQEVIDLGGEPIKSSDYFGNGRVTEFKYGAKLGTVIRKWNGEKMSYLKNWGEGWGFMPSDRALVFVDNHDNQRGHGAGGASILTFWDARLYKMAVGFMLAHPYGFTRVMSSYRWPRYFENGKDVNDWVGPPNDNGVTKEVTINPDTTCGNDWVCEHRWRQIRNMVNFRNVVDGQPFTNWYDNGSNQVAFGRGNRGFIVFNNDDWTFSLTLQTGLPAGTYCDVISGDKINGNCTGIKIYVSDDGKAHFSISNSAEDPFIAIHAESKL
Nature of the data set: Inhibition of human saliva alpha-amylase using starch as substrate preincubated for 15 mins followed by substrate addition and measured after 15 mins.

Data set [2] can be described thus: Cytotoxicity against HEK293 cells assessed as reduction in cell growth incubated for 12 hrs by CCK-8 assay. Format: toxicity, cell-based. The note with it: human.
For data set [3], the target named is T1, Alpha amylase. Nature of the data set: Competitive inhibition of human saliva alpha-amylase assessed as inhibition constant using starch as substrate preincubated for 15 mins followed by substrate addition and measured after 15 mins by dixon plot analysis. It is filed as tissue-based.
Data set [4] concerns O=C(N/N=C/c1coc2cc(Br)ccc2c1=O)c1nc(-c2cccc(Br)c2)cs1. The experiment in a line: Competitive inhibition of human saliva alpha-amylase assessed as Km using starch as substrate preincubated for 15 mins followed by substrate addition and measured after 15 mins by Lineweaver-Burk plot analysis. The settings on record: time 30.0 min.

For orientation: IC50 means the concentration that inhibits the measured activity by half. Low readings indicate higher potency, high ones lower potency. As a reminder, the CC50 is the concentration at which the toxic effect on the cells reaches its halfway point. As a reminder, the Ki is the dissociation constant of the complex between target and ligand, obtained from inhibition or displacement. The compound `O=C(N/N=C/c1coc2cc(Br)ccc2c1=O)c1nc(-c2cccc(Br)c2)cs1` gave an IC50 against Alpha amylase [1] of 4.46 µM. Further, the CC50 at 12 h in data set [2] is over 100 µM. Moreover, the Ki on Alpha amylase [3] was found to be 5.4 µM. As to `Cc1ccc2occ(/C=N/NC(=O)c3nc(-c4ccc(F)cc4)cs3)c(=O)c2c1`, the IC50 at Alpha amylase [1] came to 19 µM. Take `O=C(N/N=C/c1coc2cc(Br)ccc2c1=O)c1nc(-c2ccc(Cl)cc2)cs1`: the IC50 against Alpha amylase [1] amounted to 6.1 µM. Moreover, in data set [2], the CC50 at 12 h worked out at 68 µM.

As usually defined, the Km is the concentration of substrate that gives half-maximal velocity. For the compound “Alpha amylase (Homo sapiens) (from UniProt P0DUB6)”, the Km in data set [4] amounted to 2140 µM.
